The text below walks through data of patent publication US7732618B2, “Benzimidazole acetic acids exhibiting CRTH2 receptor antagonism and uses thereof” (Wyeth, priority 2004, dated 2010).

pKi: −log10 of the molar value. Where only a bound is given, the exact number is not on record here.

This assay concerns the target T1, human CRTH2 (Homo sapiens, UniProt Q9Y5Y4).
T1 sequence (Q9Y5Y4 1-395): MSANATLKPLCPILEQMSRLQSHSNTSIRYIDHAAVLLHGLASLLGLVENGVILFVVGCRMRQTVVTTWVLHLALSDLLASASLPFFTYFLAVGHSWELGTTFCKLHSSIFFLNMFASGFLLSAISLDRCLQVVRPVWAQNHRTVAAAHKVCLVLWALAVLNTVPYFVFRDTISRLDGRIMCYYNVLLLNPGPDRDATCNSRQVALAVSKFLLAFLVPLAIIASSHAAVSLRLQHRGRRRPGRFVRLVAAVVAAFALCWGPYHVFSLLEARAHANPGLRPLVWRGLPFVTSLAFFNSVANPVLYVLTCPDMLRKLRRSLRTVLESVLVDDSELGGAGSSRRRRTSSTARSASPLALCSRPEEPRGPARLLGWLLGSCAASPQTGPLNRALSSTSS
In words: CRTH-2 binding assay (scintillation proximity assay, inhibition of 3H-PGD2 binding). More on the design: expressed in transfected cells; host or cells: 293EBNA-hCRTH2 cells (membrane preparation). The note with it: membranes from 293EBNA-hCRTH2 cells, 3H-PGD2 3.6 nM; Ki calculated from IC50. Here is the method: A CRTH2 binding assay was developed to measure the ability of compounds to inhibit the binding of PGD2 to human CRTH2 using a scintillation proximity assay.
Membranes containing hCRTH2 receptors were prepared from 293EBNA-hCRTH2 cells (a 293EBNA cell line stably expressing human CRTH2). The cells were grown to confluency, harvested and washed with PBS. The cells were resuspended in 10 mM Hepes pH 7.4, 1 mM EDTA and protease inhibitors and incubated for 30 min on ice. The cells were homogenized and centrifuged for 10 min at 1000×g. The supernate was centrifuged for 30 min at 100,000×g and the membrane pellet was then resuspended in 10 mM Hepes pH 7.4 and 1 mM EDTA. The protein concentration of the membrane preparation was determined by Bradford assay (Bio-Rad).
The ability of compounds to inhibit the interaction of PGD2 to human CRTH2 was determined at seven compound concentrations. Compounds were serially diluted in DMSO then diluted into CRTH2 buffer (10 mM Hepes pH 7.4, 1 mM EDTA, 10 mM MnCl2) to six times the final desired concentration. 20 μL of the diluted compounds were transferred into non-surface binding 96-well plates (Corning). Each concentration was done in triplicate. In addition to test compounds, each plate contained 12 control wells. Six of these wells contained 20 μL of CRTH2 buffer. These wells were used to measure total binding. Six wells contained 20 μL of CRTH2 buffer plus 1.5 mM indomethacin. These wells were used to measure non-specific binding. Next, 293EBNA-hCRTH2 membranes were resuspended in CRTH2 buffer with glycerol (10 mM Hepes pH 7.4, 1 mM EDTA, 10 mM MnCl2, 25% glycerol) so that the final concentration was approximately 20 μg/100 μL. Polylysine-coated yttrium silicate SPA beads (Amersham) were added to the membrane mix to a concentration of 0.4 mg/100 μL and finally ^3H-PGD2 was added to the membrane/SPA bead mix to 3.6 nM. 100 μL of the membrane/SPA bead/^3H-PGD2 mix was added to each well of the non-surface binding plates containing the diluted compound or controls. The plates were incubated for 2 hours at room temperature with shaking and then the plates were counted on a Microbeta scintillation counter (Perkin Elmer) for 1 min per well.
IC50 values were determined from the experimental results by nonlinear regression using Prism 4.0 software. The IC50 values were then used in conjunction with the Kd for hCRTH2 and the ^3H-PGD2 concentration used in the experiment to calculate the Ki for each compound.
`CCCc1nc2cc(NS(=O)(=O)c3ccc(F)cc3)ccc2n1CC(=O)O` [Example 1, [5-(4-Fluoro-benzenesulfonylamino)-2-propyl-benzoimidazol-1-yl]-acetic acid]: the pKi (usually the negative decadic logarithm of the Ki, by convention in mol/L) is over 6.00.

On to `CCCC(C)c1nc2cc(NS(=O)(=O)c3ccc(F)cc3)ccc2n1CC(=O)O` (stereo not drawn) [Example 2, [5-(4-Fluoro-benzenesulfonylamino)-2-(1-methyl-butyl)-benzoimidazol-1-yl]-acetic acid], for which the pKi is over 6.00. Turning to `CCc1nc2cc(NS(=O)(=O)c3ccc(F)cc3)ccc2n1CC(=O)O` [Example 3, [2-Ethyl-5-(4-fluoro-benzenesulfonylamino)-benzoimidazol-1-yl]-acetic acid], the pKi was over 6.00. Consider `CC(C)=CCCC(C)c1nc2cc(NS(=O)(=O)c3ccc(F)cc3)ccc2n1CC(=O)O` (stereo not drawn) [Example 4, [2-(1,5-Dimethyl-hex-4-enyl)-5-(4-fluoro-benzenesulfonylamino)-benzoimidazol-1-yl]-acetic acid], for which the pKi is over 5.00. Regarding `CSCCc1nc2cc(NS(=O)(=O)c3ccc(F)cc3)ccc2n1CC(=O)O` [Example 5, [5-(4-Fluoro-benzenesulfonylamino)-2-(2-methylsulfanyl-ethyl)-benzoimidazol-1-yl]-acetic acid], the pKi is over 5.00. As for `CC/C=C/c1nc2cc(NS(=O)(=O)c3ccc(F)cc3)ccc2n1CC(=O)O` [Example 6, [2-But-1-enyl-5-(4-fluoro-benzenesulfonylamino)-benzoimidazol-1-yl]-acetic acid], the pKi was over 5.00.

For the molecule `CC(C)Cc1nc2cc(NS(=O)(=O)c3ccc(F)cc3)ccc2n1CC(=O)O` [Example 7, [5-(4-Fluoro-benzenesulfonylamino)-2-isobutyl-benzoimidazol-1-yl]-acetic acid], the pKi was over 5.00. For `CC(Cc1nc2cc(NS(=O)(=O)c3ccc(F)cc3)ccc2n1CC(=O)O)CC(C)(C)C` (stereo not drawn) [Example 8, [5-(4-Fluoro-benzenesulfonylamino)-2-(2,4,4-trimethyl-pentyl)-benzoimidazol-1-yl]-acetic acid], the pKi is under 5.00. `CCCCCc1nc2cc(NS(=O)(=O)c3ccc(F)cc3)ccc2n1CC(=O)O` [Example 9, [5-(4-Fluoro-benzenesulfonylamino)-2-pentyl-benzoimidazol-1-yl]-acetic acid]: the pKi was under 5.00.

Consider `CCCCC(CC)c1nc2cc(NS(=O)(=O)c3ccc(F)cc3)ccc2n1CC(=O)O` (stereo not drawn) [Example 10, [2-(1-Ethyl-pentyl)-5-(4-fluoro-benzenesulfonylamino)-benzoimidazol-1-yl]-acetic acid], for which the pKi is under 5.00.

`C=CCOC(=O)NCCc1nc2cc(NS(=O)(=O)c3ccc(F)cc3)ccc2n1CC(=O)O` [Example 11, [2-(2-Allyloxycarbonylamino-ethyl)-5-(4-fluoro-benzenesulfonylamino)-benzoimidazol-1-yl]-acetic acid]: the pKi was over 5.00. On to `CCCCc1nc2cc(NS(=O)(=O)c3ccc(F)cc3)ccc2n1CC(=O)O` [Example 12, [2-Butyl-5-(4-fluoro-benzenesulfonylamino)-benzoimidazol-1-yl]-acetic acid], for which the pKi was over 6.00. The value for `CC(C)c1nc2cc(NS(=O)(=O)c3ccc(F)cc3)ccc2n1CC(=O)O` [Example 13, [5-(4-Fluoro-benzenesulfonylamino)-2-isopropyl-benzoimidazol-1-yl]-acetic acid] was over 6.00; that for `CCCc1nc2cc(N(Cc3ccccc3)S(=O)(=O)c3ccc(F)cc3)ccc2n1CC(=O)O` [Example 14, {5-[Benzyl-(4-fluoro-benzenesulfonyl)-amino]-2-propyl-benzoimidazol-1-yl}-acetic acid] was over 7.00; that for `CCCCc1nc2cc(N(Cc3ccccc3)S(=O)(=O)c3ccc(F)cc3)ccc2n1CC(=O)O` [Example 15, {5-[Benzyl-(4-fluoro-benzenesulfonyl)-amino]-2-butyl-benzoimidazol-1-yl}-acetic acid] was over 6.00.
